Where two headings read alike, the source gives them in different places. One block for each compound: values may come before it.
Legend:
dopamine D1 receptors = dopamine D1 receptors (Homo sapiens, UniProt P21728); experiment: Dopamine D1 receptor binding; settings: data not shown
[1] = biological target: T1, human D3 dopamine receptor (D3R) (Homo sapiens, UniProt P35462); format: binding; settings: for D2/D3: ratio of Ki values; for decrease of D3R binding affinity on replacing the amide by the amine linker: amine analogue vs corresponding amide (13b vs 19; 15b vs 8j)
T1 sequence (P35462 whole entry): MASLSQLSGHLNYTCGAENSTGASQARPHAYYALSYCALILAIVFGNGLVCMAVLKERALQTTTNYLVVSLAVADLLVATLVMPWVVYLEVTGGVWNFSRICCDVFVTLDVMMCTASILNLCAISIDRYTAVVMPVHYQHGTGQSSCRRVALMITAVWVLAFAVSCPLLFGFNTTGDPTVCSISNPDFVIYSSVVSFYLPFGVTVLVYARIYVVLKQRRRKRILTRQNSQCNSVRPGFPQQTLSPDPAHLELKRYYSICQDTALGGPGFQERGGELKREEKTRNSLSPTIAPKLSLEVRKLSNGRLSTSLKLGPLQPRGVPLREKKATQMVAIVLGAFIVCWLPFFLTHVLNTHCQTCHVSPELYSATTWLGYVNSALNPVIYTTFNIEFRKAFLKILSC

[2] = biological target: human D2L dopamine receptor (D2R) (Homo sapiens, UniProt P14416); format: binding; settings: for Ki: read-out: D2R Ki ± S.E.M., Table 2, HEK 293 hD2LR, 125I-IABN
human D2L dopamine receptor (D2R), sequence (P14416 whole entry): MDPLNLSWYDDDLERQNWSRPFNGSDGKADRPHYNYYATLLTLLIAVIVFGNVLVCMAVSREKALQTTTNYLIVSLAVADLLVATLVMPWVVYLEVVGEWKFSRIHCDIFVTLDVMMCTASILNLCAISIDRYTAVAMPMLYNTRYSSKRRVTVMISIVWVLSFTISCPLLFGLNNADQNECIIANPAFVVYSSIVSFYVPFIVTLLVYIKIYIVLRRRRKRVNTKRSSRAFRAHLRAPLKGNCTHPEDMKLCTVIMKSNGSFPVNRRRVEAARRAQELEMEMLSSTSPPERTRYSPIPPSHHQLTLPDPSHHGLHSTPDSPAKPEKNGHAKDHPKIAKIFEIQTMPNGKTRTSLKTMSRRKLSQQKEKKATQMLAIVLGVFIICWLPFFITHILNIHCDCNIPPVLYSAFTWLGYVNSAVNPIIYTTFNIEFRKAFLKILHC

hD3 (D3R) = hD3 (D3R) (Homo sapiens, UniProt P35462); experiment: Quinpirole-induced mitogenesis assay in hD3-transfected CHOp cells; format: cell-based
hD3 (D3R), sequence (P35462 whole entry): as the sequence (P35462 whole entry) above

[3] = biological target: T1, human D3 dopamine receptor (D3R); settings: Table 2; previously reported, ref [6]; cited from earlier work

dopamine D1 receptors, sequence (P21728 whole entry): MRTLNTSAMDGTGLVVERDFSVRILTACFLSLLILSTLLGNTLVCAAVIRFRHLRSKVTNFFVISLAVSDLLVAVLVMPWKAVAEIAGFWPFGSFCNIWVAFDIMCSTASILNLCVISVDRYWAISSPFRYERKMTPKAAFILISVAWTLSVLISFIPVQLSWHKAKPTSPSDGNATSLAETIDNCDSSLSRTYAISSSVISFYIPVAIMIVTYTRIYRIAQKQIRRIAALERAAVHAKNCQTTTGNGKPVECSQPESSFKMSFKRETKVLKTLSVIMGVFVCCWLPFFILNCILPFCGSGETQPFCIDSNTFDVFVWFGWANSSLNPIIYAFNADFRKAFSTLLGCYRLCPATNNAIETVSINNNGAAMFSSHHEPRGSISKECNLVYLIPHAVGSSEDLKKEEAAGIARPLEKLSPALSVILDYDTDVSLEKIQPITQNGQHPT

Compound: COc1ccccc1N1CCN(CC(F)CCNC(=O)c2ccc3c(c2)Cc2ccccc2-3)CC1 (centres unmarked) [Compound 8i, N-(3-Fluoro-4-(4-(2-methoxyphenyl)piperazin-1-yl)butyl)-9H-fluorene-2-carboxamide]
binding at dopamine D1 receptors (dopamine D1 receptors): selectivity over D1

Compound: COc1ccc2[nH]c(C(=O)NCCC(F)CN3CCN(c4ccccc4OC)CC3)cc2c1 (centres unmarked) [Compound 8m, N-(3-Fluoro-4-(4-(2-methoxyphenyl)piperazin-1-yl)butyl)-5-methoxy-1H-indole-2-carboxamide]
D3R-selectivity over D2R [1]: > 60 fold

Compound: O=C(NCCC(F)CN1CCN(c2cccc(Cl)c2Cl)CC1)c1ccc2c(c1)Cc1ccccc1-2 (centres unmarked) [Compound 8j, N-(4-(4-(2,3-Dichlorophenyl)piperazin-1-yl)-3-fluorobutyl)-9H-fluorene-2-carboxamide]
binding at dopamine D1 receptors (dopamine D1 receptors): selectivity over D1
D3R-selectivity over D2R [1]: > 1000 fold

Compound: COc1ccc2[nH]c(C(=O)NCCC(F)CN3CCN(c4cccc(Cl)c4Cl)CC3)cc2c1 (centres unmarked) [Compound 8n, N-(4-(4-(2,3-Dichlorophenyl)piperazin-1-yl)-3-fluorobutyl)-5-methoxy-1H-indole-2-carboxamide]
EC50 (hD3 (D3R)): 4.9 nM
functional profile in the D3R mitogenesis assay (hD3 (D3R)): more potent partial agonist than an antagonist
D3 mitogenesis % stimulation (hD3 (D3R); agonist mode, value in parentheses): 14.9%
D3R-selectivity over D2R [1]: > 130 fold

Compound: COc1ccccc1N1CCN(CCCCNC(=O)c2ccc3c(c2)Cc2ccccc2-3)CC1 [Compound 18, N-(4-(4-(2-methoxyphenyl)piperazin-1-yl)butyl)-9H-fluorene-2-carboxamide]
D2/D3 [3]: 185

Compound: O=C(NCCC(F)CN1CCN(c2cccc(Cl)c2Cl)CC1)c1cc2ccccc2[nH]1 (centres unmarked) [Compound 8h, N-(4-(4-(2,3-Dichlorophenyl)piperazin-1-yl)-3-fluorobutyl)-1H-indole-2-carboxamide]
D3R-selectivity over D2R [1]: > 130 fold

Compound: O=C(NCCC(F)CN1CCN(c2cccc(Cl)c2Cl)CC1)c1cc2ccccc2o1 (centres unmarked) [Compound 8d, N-(4-(4-(2,3-Dichlorophenyl)piperazin-1-yl)-3-fluorobutyl)benzofuran-2-carboxamide]
binding at dopamine D1 receptors (dopamine D1 receptors): selectivity over D1

Compound: O=C(NCCC(F)CN1CCN(c2cccc(Cl)c2Cl)CC1)c1cc2ccccc2s1 (centres unmarked) [Compound 8l, N-(4-(4-(2,3-Dichlorophenyl)piperazin-1-yl)-3-fluorobutyl)benzo[b]thiophene-2-carboxamide]
D3R-selectivity over D2R [1]: > 130 fold

Compound: COc1ccccc1N1CCN(CC(F)CCNC(=O)c2cc3ccccc3s2)CC1 (centres unmarked) [Compound 8k, N-(3-Fluoro-4-(4-(2-methoxyphenyl)piperazin-1-yl)butyl)benzo[b]thiophene-2-carboxamide]
D3R-selectivity over D2R [1]: > 60 fold

The remaining lines, values ahead:

Ki [2]: 69.9 ± 7.3 nM
D2/D3 ([1]; Table 2): 1
Ki ([1]; read-out: D3R Ki ± S.E.M., Table 2, HEK 293 hD3R, 125I-IABN): 67.9 ± 2.4 nM
Compound: N-(Benzo[b]thiophen-2-ylmethyl)-4-(4-(2-methoxyphenyl)piperazin-1-yl)-N-propylbutan-1-amine [Compound 13a]

D2R binding affinity increased on replacing the amide by the amine linker ([2]; 15b vs amide 8j): ~ 2 fold
decrease of D3R binding affinity on replacing the amide by the amine linker [1]: 150 fold
Compound: CN(CCC(F)CN1CCN(c2cccc(Cl)c2Cl)CC1)Cc1ccc2c(c1)Cc1ccccc1-2 (centres unmarked) [Compound 15b, N-((9H-Fluoren-2-yl)methyl)-4-(4-(2,3-dichlorophenyl)piperazin-1-yl)-3-fluoro-N-methylbutan-1-amine]

D2R binding affinity reduced on replacing the amide by the amine linker ([2]; 13b vs amide 19): 2.5 fold
Ki [2]: 162 ± 1.2 nM
D3R-selectivity over D2R [1]: 2 fold
D2/D3 ([1]; Table 2): 2
decrease of D3R binding affinity on replacing the amide by the amine linker [1]: 126 fold
Compound: N-(Benzo[b]thiophen-2-ylmethyl)-4-(4-(2,3-dichlorophenyl)piperazin-1-yl)-N-propylbutan-1-amine [Compound 13b]

From PMC3100590 (Journal of medicinal chemistry, 2011)
